Measurements: PubChem BioAssay (NCI)
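Cells were grown in 96-well plates and exposed to each compound for 48 hours at five concentrations; endpoints were interpolated linearly between bracketing concentrations, or set to the highest concentration if not reached. At the GI50, growth is halved. TGI is the concentration that stops growth completely.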

Experiments:
Experiment in all cases: DTP human tumour cell line panel, 48 h
786-0 renal = tested on: 786-0 renal
A498 renal = tested on: A498 renal
A549 NSCLC = tested on: A549 NSCLC
ACHN renal = tested on: ACHN renal
CAKI-1 renal = tested on: CAKI-1 renal
CCRF-CEM leukemia = tested on: CCRF-CEM leukemia
COLO 205 colon = tested on: COLO 205 colon
DLD-1 colon = tested on: DLD-1 colon
DMS 114 small cell lung = tested on: DMS 114 small cell lung
DMS 273 small cell lung = tested on: DMS 273 small cell lung
HCC-2998 colon = tested on: HCC-2998 colon
HCT-116 colon = tested on: HCT-116 colon
HCT-15 colon = tested on: HCT-15 colon
HL-60(TB) leukemia = tested on: HL-60(TB) leukemia
HOP-18 NSCLC = tested on: HOP-18 NSCLC
HOP-62 NSCLC = tested on: HOP-62 NSCLC
HT29 colon = tested on: HT29 colon
IGROV1 ovarian = tested on: IGROV1 ovarian
K-562 leukemia = tested on: K-562 leukemia
KM12 colon = tested on: KM12 colon
KM20L2 colon = tested on: KM20L2 colon
LOX IMVI melanoma = tested on: LOX IMVI melanoma
LXFL 529 NSCLC = tested on: LXFL 529 NSCLC
M14 melanoma = tested on: M14 melanoma
M19-MEL melanoma = tested on: M19-MEL melanoma
MALME-3M melanoma = tested on: MALME-3M melanoma
MOLT-4 leukemia = tested on: MOLT-4 leukemia
NCI-H226 lung = tested on: NCI-H226 lung
NCI-H23 lung = tested on: NCI-H23 lung
NCI-H460 lung = tested on: NCI-H460 lung
NCI-H522 lung = tested on: NCI-H522 lung
OVCAR-3 ovarian = tested on: OVCAR-3 ovarian
OVCAR-4 ovarian = tested on: OVCAR-4 ovarian
OVCAR-5 ovarian = tested on: OVCAR-5 ovarian
OVCAR-8 ovarian = tested on: OVCAR-8 ovarian
RPMI-8226 leukemia = tested on: RPMI-8226 leukemia
RXF 393 renal = tested on: RXF 393 renal
SF-268 CNS = tested on: SF-268 CNS
SF-295 CNS = tested on: SF-295 CNS
SF-539 CNS = tested on: SF-539 CNS
SK-MEL-2 melanoma = tested on: SK-MEL-2 melanoma
SK-MEL-28 melanoma = tested on: SK-MEL-28 melanoma
SK-MEL-5 melanoma = tested on: SK-MEL-5 melanoma
SK-OV-3 ovarian = tested on: SK-OV-3 ovarian
SN12C renal = tested on: SN12C renal
SNB-19 CNS = tested on: SNB-19 CNS
SNB-75 CNS = tested on: SNB-75 CNS
SNB-78 CNS = tested on: SNB-78 CNS
SW-620 colon = tested on: SW-620 colon
TK-10 renal = tested on: TK-10 renal
U251 CNS = tested on: U251 CNS
UACC-257 melanoma = tested on: UACC-257 melanoma
UACC-62 melanoma = tested on: UACC-62 melanoma
UO-31 renal = tested on: UO-31 renal
BT-549 breast = tested on: BT-549 breast
DU-145 prostate = tested on: DU-145 prostate
EKVX NSCLC = tested on: EKVX NSCLC
HOP-92 NSCLC = tested on: HOP-92 NSCLC
HS 578T breast = tested on: HS 578T breast
MCF7 breast = tested on: MCF7 breast
MDA-MB-231 breast = tested on: MDA-MB-231 breast
MDA-MB-435 = tested on: MDA-MB-435
MDA-N = tested on: MDA-N
NCI/ADR-RES ovarian = tested on: NCI/ADR-RES ovarian
PC-3 prostate = tested on: PC-3 prostate
SR leukemia = tested on: SR leukemia
T-47D breast = tested on: T-47D breast

## COc1cccc(NC(=O)CSc2nnc(Cc3ccccc3)o2)c1
786-0 renal
  TGI: > 100 µM
A498 renal
  TGI: > 100 µM
A549 NSCLC
  TGI: > 100 µM
ACHN renal
  TGI: 63.6 µM
CAKI-1 renal
  TGI: > 100 µM
CCRF-CEM leukemia
  TGI: > 100 µM
COLO 205 colon
  TGI: > 100 µM
DLD-1 colon
  TGI: > 100 µM
DMS 114 small cell lung
  TGI: > 100 µM
DMS 273 small cell lung
  TGI: > 100 µM
HCC-2998 colon
  TGI: > 100 µM
HCT-116 colon
  TGI: > 100 µM
HCT-15 colon
  TGI: > 100 µM
HL-60(TB) leukemia
  TGI: > 100 µM
HOP-18 NSCLC
  TGI: > 100 µM
HOP-62 NSCLC
  TGI: > 100 µM
HT29 colon
  TGI: > 100 µM
IGROV1 ovarian
  TGI: > 100 µM
K-562 leukemia
  TGI: > 100 µM
KM12 colon
  TGI: > 100 µM
KM20L2 colon
  TGI: > 100 µM
LOX IMVI melanoma
  TGI: > 100 µM
LXFL 529 NSCLC
  TGI: > 100 µM
M14 melanoma
  TGI: > 100 µM
M19-MEL melanoma
  TGI: > 100 µM
MALME-3M melanoma
  TGI: > 100 µM
MOLT-4 leukemia
  TGI: > 100 µM
NCI-H226 lung
  TGI: > 100 µM
NCI-H23 lung
  TGI: > 100 µM
NCI-H460 lung
  TGI: > 100 µM
NCI-H522 lung
  TGI: > 100 µM
OVCAR-3 ovarian
  TGI: > 100 µM
OVCAR-4 ovarian
  TGI: > 100 µM
OVCAR-5 ovarian
  TGI: > 100 µM
OVCAR-8 ovarian
  TGI: > 100 µM
RPMI-8226 leukemia
  TGI: > 100 µM
RXF 393 renal
  TGI: > 100 µM
SF-268 CNS
  TGI: > 100 µM
SF-295 CNS
  TGI: > 100 µM
SF-539 CNS
  TGI: > 100 µM
SK-MEL-2 melanoma
  TGI: > 100 µM
SK-MEL-28 melanoma
  TGI: > 100 µM
SK-MEL-5 melanoma
  TGI: > 100 µM
SK-OV-3 ovarian
  TGI: > 100 µM
SN12C renal
  TGI: > 100 µM
SNB-19 CNS
  TGI: > 100 µM
SNB-75 CNS
  TGI: > 100 µM
SNB-78 CNS
  TGI: > 100 µM
SW-620 colon
  TGI: > 100 µM
TK-10 renal
  TGI: > 100 µM
U251 CNS
  TGI: > 100 µM
UACC-257 melanoma
  TGI: > 100 µM
UACC-62 melanoma
  TGI: > 100 µM
UO-31 renal
  TGI: > 100 µM

## O=C(O)CCC(c1ccccc1)(c1ccccc1)c1ccccc1
786-0 renal
  TGI: > 100 µM
A498 renal
  TGI: > 100 µM
A549 NSCLC
  TGI: > 100 µM
ACHN renal
  TGI: > 100 µM
BT-549 breast
  GI50: 80.1 µM
  TGI: > 100 µM
CAKI-1 renal
  GI50: 66.4 µM
  TGI: > 100 µM
CCRF-CEM leukemia
  TGI: > 100 µM
COLO 205 colon
  TGI: 97.6 µM
DU-145 prostate
  TGI: > 100 µM
EKVX NSCLC
  TGI: > 100 µM
HCC-2998 colon
  TGI: > 100 µM
HCT-116 colon
  GI50: 43.6 µM
  TGI: > 100 µM
HCT-15 colon
  TGI: > 100 µM
HL-60(TB) leukemia
  TGI: > 90.6 µM
HOP-62 NSCLC
  TGI: > 100 µM
HOP-92 NSCLC
  TGI: > 73.9 µM
HS 578T breast
  TGI: > 100 µM
HT29 colon
  TGI: > 100 µM
IGROV1 ovarian
  GI50: 71.2 µM
  TGI: > 100 µM
K-562 leukemia
  TGI: > 100 µM
KM12 colon
  TGI: > 100 µM
LOX IMVI melanoma
  TGI: > 100 µM
M14 melanoma
  TGI: > 100 µM
MALME-3M melanoma
  TGI: > 100 µM
MCF7 breast
  TGI: > 71 µM
MDA-MB-231 breast
  TGI: > 100 µM
MDA-MB-435
  TGI: > 100 µM
MDA-N
  TGI: > 100 µM
MOLT-4 leukemia
  TGI: > 92.2 µM
NCI-H226 lung
  TGI: > 100 µM
NCI-H23 lung
  TGI: > 100 µM
NCI-H460 lung
  TGI: > 91.2 µM
NCI-H522 lung
  GI50: 55.3 µM
  TGI: > 100 µM
NCI/ADR-RES ovarian
  TGI: > 100 µM
OVCAR-3 ovarian
  TGI: > 69.6 µM
OVCAR-4 ovarian
  TGI: > 100 µM
OVCAR-5 ovarian
  TGI: > 100 µM
OVCAR-8 ovarian
  TGI: > 100 µM
PC-3 prostate
  TGI: > 100 µM
RPMI-8226 leukemia
  TGI: > 94.3 µM
RXF 393 renal
  GI50: 49.5 µM
  TGI: > 100 µM
SF-268 CNS
  TGI: > 92.9 µM
SF-295 CNS
  TGI: > 100 µM
SF-539 CNS
  TGI: > 100 µM
SK-MEL-2 melanoma
  TGI: > 84 µM
SK-MEL-28 melanoma
  TGI: > 100 µM
SK-MEL-5 melanoma
  TGI: > 100 µM
SK-OV-3 ovarian
  TGI: > 100 µM
SN12C renal
  TGI: > 100 µM
SNB-19 CNS
  TGI: > 100 µM
SNB-75 CNS
  GI50: > 100 µM
  TGI: > 100 µM
SR leukemia
  TGI: > 89 µM
SW-620 colon
  TGI: > 100 µM
T-47D breast
  TGI: > 60.3 µM
TK-10 renal
  TGI: > 100 µM
U251 CNS
  TGI: > 100 µM
UACC-257 melanoma
  TGI: > 100 µM
UACC-62 melanoma
  TGI: > 100 µM
UO-31 renal
  TGI: > 100 µM
